From doi:10.1101/2024.09.05.611349v1 (biorxiv, 2024)
In brackets after ≈: the same amount, converted by molar mass. Like-named read-outs stand apart in the source and are kept apart here. Blank lines part the entries; values can stand above or below the compound they belong to.

Legend:
[1] = test system: Staphylococcus aureus MSSA 15-7; test: microbe, parasite or virus in culture; design: species or system gram-positive clinical isolates; settings: Staphylococcus aureus, MSSA
[2] = test system: Staphylococcus epidermidis MRSE 15-83; test: microbe, parasite or virus in culture; design: species or system gram-positive clinical isolates; settings: Staphylococcus epidermidis, MRSE
[3] = test system: Enterococcus faecalis EFA 15-57; test: microbe, parasite or virus in culture; design: species or system gram-positive clinical isolates; settings: Enterococcus faecalis
[4] = test system: Staphylococcus epidermidis MRSE 17-1; test: microbe, parasite or virus in culture; design: species or system gram-positive clinical isolates; settings: Staphylococcus epidermidis, MRSE
[5] = test system: Staphylococcus epidermidis MRSE 15-81; test: microbe, parasite or virus in culture; design: species or system gram-positive clinical isolates; settings: Staphylococcus epidermidis, MRSE
[6] = test system: Staphylococcus epidermidis MRSE 15-78; test: microbe, parasite or virus in culture; design: species or system gram-positive clinical isolates; settings: Staphylococcus epidermidis, MRSE
[7] = test system: Staphylococcus aureus MSSA 16-1; test: microbe, parasite or virus in culture; design: species or system gram-positive clinical isolates; settings: Staphylococcus aureus, MSSA
[8] = test system: Enterococcus faecalis EFA 15-68; test: microbe, parasite or virus in culture; design: species or system gram-positive clinical isolates; settings: Enterococcus faecalis
[9] = test system: Enterococcus faecalis EFA 15-66; test: microbe, parasite or virus in culture; design: species or system gram-positive clinical isolates; settings: Enterococcus faecalis
[10] = test system: Enterococcus faecium EFM 15-6; test: microbe, parasite or virus in culture; design: species or system gram-positive clinical isolates; settings: Enterococcus faecium
[11] = test system: Staphylococcus epidermidis MRSE 15-3; test: microbe, parasite or virus in culture; design: species or system gram-positive clinical isolates; settings: Staphylococcus epidermidis, MRSE
[12] = test system: Staphylococcus epidermidis MRSE 17-3; test: microbe, parasite or virus in culture; design: species or system gram-positive clinical isolates; settings: Staphylococcus epidermidis, MRSE
[13] = test system: Staphylococcus epidermidis MRSE 15-82; test: microbe, parasite or virus in culture; design: species or system gram-positive clinical isolates; settings: Staphylococcus epidermidis, MRSE
[14] = test system: Staphylococcus epidermidis MSSE 15-59; test: microbe, parasite or virus in culture; design: species or system gram-positive clinical isolates; settings: Staphylococcus epidermidis, MSSE1559, read-out: MIC(μg/ml) / 1b
[15] = test system: Staphylococcus aureus MRSA 17-9; test: microbe, parasite or virus in culture; design: species or system gram-positive clinical isolates; settings: Staphylococcus aureus, MRSA
[16] = test system: Staphylococcus aureus MSSA 16-2; test: microbe, parasite or virus in culture; design: species or system gram-positive clinical isolates; settings: Staphylococcus aureus, MSSA
[17] = test system: Staphylococcus aureus MRSA 17-1; test: microbe, parasite or virus in culture; design: species or system gram-positive clinical isolates; settings: Staphylococcus aureus, MRSA
[18] = test system: Staphylococcus epidermidis MSSE 15-64; test: microbe, parasite or virus in culture; design: species or system gram-positive clinical isolates; settings: Staphylococcus epidermidis, MSSE1564, read-out: MIC(μg/ml) / 1b
[19] = test system: Enterococcus faecalis EFA 15-1; test: microbe, parasite or virus in culture; design: species or system gram-positive clinical isolates; settings: Enterococcus faecalis
[20] = test system: Staphylococcus aureus MRSA 17-2; test: microbe, parasite or virus in culture; design: species or system gram-positive clinical isolates; settings: Staphylococcus aureus, MRSA
[21] = test system: Staphylococcus aureus MRSA 17-4; test: microbe, parasite or virus in culture; design: species or system gram-positive clinical isolates; settings: Staphylococcus aureus, MRSA
[22] = test system: Staphylococcus aureus MSSA 15-5; test: microbe, parasite or virus in culture; design: species or system gram-positive clinical isolates; settings: Staphylococcus aureus, MSSA
[23] = test system: Staphylococcus aureus MRSA 17-8; test: microbe, parasite or virus in culture; design: species or system gram-positive clinical isolates; settings: Staphylococcus aureus, MRSA
[24] = test system: Enterococcus faecalis EFA 15-58; test: microbe, parasite or virus in culture; design: species or system gram-positive clinical isolates; settings: Enterococcus faecalis
[25] = test system: Enterococcus faecium EFM 15-11; test: microbe, parasite or virus in culture; design: species or system gram-positive clinical isolates; settings: Enterococcus faecium
in vitro = settings: Mouse plasma
[26] = read-out: MIC(μg/ml) / vancomycin

SMILES: CCCCCOc1ccc(C(=O)NNC(=S)NC(C)=O)cc1 [1b, N-(2-(4-(n-pentoxy)benzoyl)hydrazine-1-carbonothioyl)acetamide]
MIC ([1]; read-out: MIC(μg/ml) / 1b): 2 µg/mL (≈ 6.18 µM) | MIC ([2]; read-out: MIC(μg/ml) / 1b): 1 µg/mL (≈ 3.09 µM) | MIC ([3]; EFA1557, read-out: MIC(μg/ml) / 1b): 4 µg/mL (≈ 12.4 µM) | MIC ([4]; read-out: MIC(μg/ml) / 1b): 0.5 µg/mL (≈ 1.55 µM) | MIC ([5]; read-out: MIC(μg/ml) / 1b): 0.5 µg/mL (≈ 1.55 µM) | MIC ([6]; read-out: MIC(μg/ml) / 1b): 2 µg/mL (≈ 6.18 µM) | MIC ([7]; read-out: MIC(μg/ml) / 1b): 1 µg/mL (≈ 3.09 µM) | MIC ([8]; EFA1568, read-out: MIC(μg/ml) / 1b): 4 µg/mL (≈ 12.4 µM) | MIC ([9]; EFA1566, read-out: MIC(μg/ml) / 1b): 4 µg/mL (≈ 12.4 µM) | MIC ([10]; EFM156, read-out: MIC(μg/ml) / 1b): 2 µg/mL (≈ 6.18 µM) | MIC ([11]; read-out: MIC(μg/ml) / 1b): 2 µg/mL (≈ 6.18 µM) | MIC ([12]; read-out: MIC(μg/ml) / 1b): 1 µg/mL (≈ 3.09 µM) | MIC ([13]; read-out: MIC(μg/ml) / 1b): 1 µg/mL (≈ 3.09 µM) | MIC [14]: 1 µg/mL (≈ 3.09 µM) | MIC ([15]; read-out: MIC(μg/ml) / 1b): 2 µg/mL (≈ 6.18 µM) | MIC ([16]; read-out: MIC(μg/ml) / 1b): 1 µg/mL (≈ 3.09 µM) | MIC ([17]; read-out: MIC(μg/ml) / 1b): 2 µg/mL (≈ 6.18 µM) | MIC [18]: 8 µg/mL (≈ 24.7 µM) | MIC ([19]; EFA151, read-out: MIC(μg/ml) / 1b): 8 µg/mL (≈ 24.7 µM) | MIC ([20]; read-out: MIC(μg/ml) / 1b): 4 µg/mL (≈ 12.4 µM) | MIC ([21]; read-out: MIC(μg/ml) / 1b): 2 µg/mL (≈ 6.18 µM) | MIC ([22]; read-out: MIC(μg/ml) / 1b): 2 µg/mL (≈ 6.18 µM) | MIC ([23]; read-out: MIC(μg/ml) / 1b): 2 µg/mL (≈ 6.18 µM) | MIC ([24]; EFA1558, read-out: MIC(μg/ml) / 1b): 4 µg/mL (≈ 12.4 µM) | MIC ([25]; EFM1511, read-out: MIC(μg/ml) / 1b): 4 µg/mL (≈ 12.4 µM) | Mouse plasma T1/2 (in vitro): >2 h

MIC [1, 26]: 1 µg/mL (≈ 0.69 µM) | MIC [2, 26]: 1 µg/mL (≈ 0.69 µM) | MIC ([3]; EFA1557, read-out: MIC(μg/ml) / vancomycin): 2 µg/mL (≈ 1.38 µM) | MIC [4, 26]: 1 µg/mL (≈ 0.69 µM) | MIC [5, 26]: 2 µg/mL (≈ 1.38 µM) | MIC [6, 26]: 1 µg/mL (≈ 0.69 µM) | MIC [7, 26]: 0.5 µg/mL (≈ 0.345 µM) | MIC ([8]; EFA1568, read-out: MIC(μg/ml) / vancomycin): 0.5 µg/mL (≈ 0.345 µM) | MIC ([9]; EFA1566, read-out: MIC(μg/ml) / vancomycin): 2 µg/mL (≈ 1.38 µM) | MIC ([10]; EFM156, read-out: MIC(μg/ml) / vancomycin): 1 µg/mL (≈ 0.69 µM) | MIC [11, 26]: 2 µg/mL (≈ 1.38 µM) | MIC [12, 26]: 2 µg/mL (≈ 1.38 µM) | MIC [13, 26]: 1 µg/mL (≈ 0.69 µM) | MIC [15, 26]: 0.5 µg/mL (≈ 0.345 µM) | MIC [16, 26]: 0.5 µg/mL (≈ 0.345 µM) | MIC [17, 26]: 0.5 µg/mL (≈ 0.345 µM) | MIC ([19]; EFA151, read-out: MIC(μg/ml) / vancomycin): 0.5 µg/mL (≈ 0.345 µM) | MIC [20, 26]: 0.5 µg/mL (≈ 0.345 µM) | MIC [21, 26]: 1 µg/mL (≈ 0.69 µM) | MIC [22, 26]: 0.5 µg/mL (≈ 0.345 µM) | MIC [23, 26]: 0.5 µg/mL (≈ 0.345 µM) | MIC ([24]; EFA1558, read-out: MIC(μg/ml) / vancomycin): 0.5 µg/mL (≈ 0.345 µM) | MIC ([25]; EFM1511, read-out: MIC(μg/ml) / vancomycin): 0.5 µg/mL (≈ 0.345 µM)
SMILES: CN[C@H](CC(C)C)C(=O)N[C@H]1C(=O)N[C@@H](CC(N)=O)C(=O)N[C@H]2C(=O)N[C@H]3C(=O)N[C@H](C(=O)N[C@H](C(=O)O)c4cc(O)cc(O)c4-c4cc3ccc4O)[C@H](O)c3ccc(c(Cl)c3)Oc3cc2cc(c3O[C@@H]2O[C@H](CO)[C@@H](O)[C@H](O)[C@H]2O[C@H]2C[C@](C)(N)[C@H](O)[C@H](C)O2)Oc2ccc(cc2Cl)[C@H]1O [vancomycin]
